From patent US20170247409A1, “ABIETANE-TYPE DITERPENOIDS” (UNIVERSITY OF HELSINKI, priority 2014, published 2017)
≈ marks a conversion by molar mass, not a printed value. Read-outs that look alike come from different tables or passages of the source.

How the values were obtained:
S. aureus Newman = test: Anti-biofilm potency against S. aureus Newman biofilms; type: cell-based, Staphylococcus aureus; details: Staphylococcus aureus, S. aureus Newman
Description: In fact, only 2-3 fold-higher concentrations of the compounds were needed to kill existing biofilms, in comparison to inhibiting bacterial colonization. […] Anti-biofilm potencies were all in the micromolar range and they were particularly significant for compound 22. […] The activity was also confirmed against S. aureus Newman strain. Potency values calculated for the S. aureus Newman (Table 3) were very similar to the values registered for S. aureus ATCC 25923.

[1] = system: S. epidermidis ATCC 35984; test: Anti-biofilm activity against S. epidermidis ATCC 35984; type: cell-based, Staphylococcus epidermidis; details: tested at IC50 conc. measured against S. aureus ATCC 25923
Experimental: (§1) Four of the compounds were also tested against gram-negative E. coli biofilms as well as other Staphylococcal strains, at the corresponding IC50 values measured against S. aureus ATCC 25923 (Table 4). […] Nonetheless, all the compounds presented below were found active against S. epidermidis (ATCC 12228 and ATCC 35984) strains (Table 3).

[2] = system: S. aureus ATCC 25923 biofilms; test: Membrane depolarization in biofilms, DiBAC4(3) probe; type: cell-based, Staphylococcus aureus; details: 1 h exposure to the biofilms (FIG. 2B)
Description: (§2) A: quantification of ATP release from the S. aureus ATCC 25923 biofilms using the BacTiter-Glo bioluminescent assay. B: quantification of membrane depolarization in treated biofilms by the potential-sensitive DiABC(4)3 probe; this probe can only enter depolarized cells, where it experienced an enhanced fluorescence signal upon binding to intracellular proteins. For statistical comparisons between the treated and untreated samples, an unpaired t-test with Welch's correction was used, using GraphPad Prism (v 5.0 for Mac OS X).
(§3) ATP release from the biofilms after 1 h exposure to compounds 22 and 25 at 100 μM was quantified on the culture media, using the BacTiter-Glo bioluminescent assay. […] ATP release can be often associated to membrane depolarization events. Here, such events were followed by the increase in fluorescence emission of the DiBAC4(3) probe, as in Okuda et al. (2013).

[3] = system: S. aureus ATCC 25923 biofilms; test: Anti-biofilm viability assay with redox dye, pre- and post-exposure, S. aureus ATCC 25923 biofilms; type: cell-based, Staphylococcus aureus; details: for IC50 / inhibition at 400 µM: S. aureus ATCC 25923; for inhibition at 400 µM: ATCC25923; for reduction of the viable biofilm cells: time-course on existing biofilms, within the first hour (FIG. 1)
E. coli XL1 blue = test: Anti-biofilm activity against E. coli XL1 blue biofilms; type: cell-based, Escherichia coli; details: tested at IC50 conc. measured against S. aureus ATCC 25923
Experimental: as §1

[4] = system: S. epidermidis ATCC 12228; test: Anti-biofilm activity against S. epidermidis ATCC 12228; type: cell-based, Staphylococcus epidermidis; details: tested at IC50 conc. measured against S. aureus ATCC 25923
Experimental: as §1

[5] = system: S. aureus ATCC 25923 biofilms; test: ATP release from biofilms, BacTiter-Glo bioluminescent assay; type: cell-based, Staphylococcus aureus; details: 100 μM; 1 h exposure (FIG. 2A)
Description: as §2, §3

single-cell bacteria = test: Antibacterial activity (MIC) against single-cell (planktonic) bacteria; type: cell-based; details: Staphylococcus aureus, in the absence of biofilms, strain not stated
Description: We selected six of the active compounds in the post-exposure assays namely, compounds 20, 21, 22, 25, 31 and 32 for the follow-up studies. […] In this mode of the assay, the interaction of the compounds occurs initially with single-cell bacteria (that is, a planktonic solution) before biofilms are formed. Therefore, we tested additionally if the compounds could exert antibacterial activity against single-cell bacteria, in the absence of biofilms. Based solely on conventional MIC and MBC values, antibacterial activities against single-cell bacteria were also high for the derivatives. […] The antibacterial activity order 22>21>25>31>20>32 correlated very well with the measured activity in preventing biofilm formation.

HL cells [6] = test: Biocompatibility index (LC50 in HL cells / concentration causing 3-log reduction of planktonic bacteria); type: cell-based, human; details: ratio LC50 (HL cells) / concentration causing 3-log reduction in planktonic bacterial burden
Experimental: Additionally, the biocompatibility index (BI) was calculated for compound 22, to assess the overall impact of its antimicrobial activity, using an adaptation of the equation described for antiseptics by Muller and Kramer, 2008. BI, as originally defined by these authors, is a dimensionless parameter resulting from the ratio of the in vitro cytotoxicity values (in this case, half-lethal concentrations, LC50) to the concentration of the compound causing a 3-log reduction in the viable counts of suspended bacteria. Compounds with BI<1 are deemed as less promising, due to their potential toxic effects. Thus BI is a very useful tool for the quick exclusion of undesired toxic scaffolds or weak hits in early stage of development of anti-biofilm molecules. For the determination of the BI, acute cytotoxicity of compound 22 was measured in the same cell line described earlier (HL cells), using the resazurin assay as in Karlsson et al, 2012. The ratio of the half lethal concentration (LC50) and the concentration causing 3-log reduction in the planktonic bacterial burden was calculated (both expressed in […]), as below:
The BI value of compound 22 was clearly higher than 1, which is indicative of an adequate combination of an effective anti-biofilm activity with a low cytotoxicity. It is thus expected that toxic effects can be minimized in the host organisms exposed to compound 22.

[7] = system: S. aureus ATCC 25923 biofilms; test: Viable plate counts and Log Reduction of S. aureus ATCC 25923 biofilms; type: cell-based, Staphylococcus aureus; details: 400 μM, viable plate counts
Experimental: The viability of S. aureus (ATCC 25923) biofilms left upon exposure to compounds 20, 21, 22 and 25 was determined using viable plate counts and calculating the Log Reduction (Log R) value. This procedure involves scrapping the biofilms off the substrate, disaggregating them by sonication and plating the resulting suspension in agar. The method is highly laborious but it is the gold standard for the quantification of anti-biofilm efficacy (Pitts et al. 2003). […] Of note, a log R value of 2 represents a reduction of 99% of the viable cells in the biofilms, and typically, a log R of 3 is considered a relevant indicator of the compound efficacy as an anti-biofilm agent.

HL cells [8] = test: Tolerability of mammalian cells, resazurin viability assay; type: cell-based, human; details: 24 hours exposure, HL cells
Experimental: Viability values were measured in acute conditions (24 hours exposure) using the resazurin assay as in Karlsson et al, 2012 (Eur J Pharm Sci. 2012 Aug 30;47(1):190-205). […] The least tolerated molecule was 25, as only 23% (±5.9) of cells remained viable upon exposure to 100 μM. However, concentrations up to 30 μM caused no cytotoxicity (90.2% of viable cells, ±0.5).

[9] = read-out: Potency, IC50 Post-biofilm formation
[10] = read-out: Potency, IC50 Prior-to-biofilm formation
[11] = value in parentheses, read-out: Potency, IC50 Post-biofilm formation
[12] = value in parentheses, read-out: Potency, IC50 Prior-to-biofilm formation
[13] = Staphylococcus aureus, ATCC25923, 50% inhibition of biofilm viability, read-out: Potency, IC50 Prior-to-biofilm formation
[14] = Staphylococcus aureus, ATCC25923, 50% inhibition of biofilm viability, value in parentheses, read-out: Potency, IC50 Prior-to-biofilm formation
[15] = Staphylococcus aureus, ATCC25923, 24 h, measured 24 hours after adding to existing biofilms, value in parentheses, read-out: Potency, IC50 Post-biofilm formation
[16] = Staphylococcus aureus, post-exposure, read-out: % Inhibition 400 μM POST
[17] = Staphylococcus aureus, pre-exposure, read-out: % Inhibition 400 μM PRE

Row | Structure (SMILES) | IC50 (S. aureus Newman; [9]) | IC50 (S. aureus Newman; [10]) | IC50 (S. aureus Newman; [11]) | IC50 (S. aureus Newman; [12]) | Inhibition percentage (±SD) Post-biofilm formation [1] | Inhibition percentage (±SD) Prior-to-biofilm formation [1] | membrane depolarization [2] | IC50 [3, 13] | IC50 [3, 14] | IC50 [3, 15] | inhibition at 400 µM [3, 16] | inhibition at 400 µM [3, 17] | reduction of the viable biofilm cells [3] | Inhibition percentage (±SD) Post-biofilm formation (E. coli XL1 blue) | Inhibition percentage (±SD) Prior-to-biofilm formation (E. coli XL1 blue) | Inhibition percentage (±SD) Post-biofilm formation [4] | Inhibition percentage (±SD) Prior-to-biofilm formation [4] | ATP release from the biofilms [5] | MIC (single-cell bacteria) | Log Reduction (average ±SD) [7] | further results
1 | CC(C)c1ccc2c(c1)CC[C@H]1[C@](C)(C(=O)N[C@@H](CC3CCCCC3)C(=O)O)CCC[C@]21C [Compound 22, N-(Abiet-8,11,13-trien-18-oyl) Cyclohexyl-L-alanine] | 48.2 µM | 7.9 µM | 21.9 µg/mL | 3.6 µg/mL | 1.9 (±5.7) % | 48.8 (±4.8) % | caused membrane depolarization | 9.4 µM | 4.2 µg/mL | 12.7 µg/mL | 99.6% | 100% | ~50% | 14.2 (±13.1) % | 5.2 (±11.3) % | 4.4 (±5.8) % | 42.3 (±9.5) % | highly significant ATP leakage | 6.8 µg/mL (≈ 15 µM) | 2.3 (±0.1) | biocompatibility index (BI) (HL cells [6]): higher than 1
2 | CC(C)c1ccc2c(c1)CC[C@H]1[C@](C)(C(=O)N[C@H](Cc3c[nH]c4ccccc34)C(=O)O)CCC[C@]21C [Compound 25, N-(Abiet-8,11,13-trien-18-oyl) D-tryptophan] | 71.7 µM | 20.9 µM | 34.9 µg/mL | 10.2 µg/mL | 38.0 (±9.3) % | 66.9 (±0.9) % | caused membrane depolarization | 33.2 µM | 16.2 µg/mL | 41.9 µg/mL | 102% | 102% | ~50% | 6.7 (±7.2) % | 8.7 (±5.6) % | 48.8 (±10.3) % | 70.3 (±5.6) % | highly significant ATP leakage | 29.3 µg/mL (≈ 60.2 µM) | 6.2 (±0.4) | viable cells (HL cells [8]; 100 μM): 23%; viable cells (HL cells [8]; concentrations up to 30 μM): 90.2%; IC50 ([3]; Staphylococcus aureus, ATCC25923, 24 h, measured 24 hours after adding to existing biofilms, read-out: Potency, IC50 Post-biofilm formation): < 100 µM; IC50 ([3]; measured 24 hours after adding to existing biofilms, read-out: Potency, IC50 Post-biofilm formation): 86.1 µM
